Measurements published in patent US8524705B2, “2-oxo-2-(2-phenyl-5,6,7,8-tetrahydro-indolizin-3-yl)-acetamide derivatives and related compounds as antifungal agents” (F2G Limited British Body Corporate, priority 2007, dated 2013).
Converted amounts (≈) assume the structure as drawn.

Tests used:
Assay type in all cases: cell-based
Settings in all cases: banded into grades
Aspergillus flavus = test: Measurement of Minimum Inhibitory Concentrations (MICs), A. flavus
Procedure: (§1) Between 1 and 5 mgs of compound were accurately weighed out into a sterile Eppendorf tube. The compound was dissolved in DMSO to give a solution containing 5 mg/mL. Tubes were stored at −20° C. until required. On the day of testing thawed solutions were vortex mixed to ensure homogeneity. 30 μL of solution was removed and added to 570 μL of sterile water in a separate sterile Eppendorf. The thoroughly mixed solution was used to prepare a series of doubling dilutions in water, in a deep well plate. […] replicate plates were prepared using a Minitrak by aspirating […] from each well into eleven clear polystyrene 96 well plates. Spores of Aspergillus spp. (Aspergillus fumigatus [two strains], Aspergillus terreus [two strains], Aspergillus niger and Aspergillus flavus) were harvested from cultures grown on Sabarauds agar for 5 days, and resuspended in PBS/Tween 80 to approx 1×10^7 cfu/mL. Each organism suspension was diluted in YAG medium (1% glucose, 1% ammonium chloride and 0.5% yeast extract) to 0.5-2×10^4 cfu/mL. 80 μL of an organism suspension was added to each well of the plate containing drug dilutions. This produced MIC plates with a drug range 50-0.05 mg/L and organism inocula of 1−2×10^4 cfu/mL for Aspergillus spp. All plates were incubated for 24 hrs at 35° C. Growth was assessed by monitoring the optical density at 485 nm for each well. The MIC of a compound is the lowest drug concentration that inhibits growth of an organism by >70% compared with a drug free control. MICs are recorded as mg/L. In cases where the MIC of an organism is >=0.05 mg/L the MIC is repeated using a concentration range of 0.5-0.0005 mg/L. Other growth media can be used for susceptibility testing, and the activity of the described compounds was also assessed in RPMI medium containing 2% glucose, and 0.135M MOPS buffer. MIC tests in YAG medium have more clear-cut endpoints and have slightly lower MICs than those performed in RPMI medium. The following organisms were tested: Aspergillus flavus, Aspergillus fumigatus AF293 and AF210, Aspergillus niger and Aspergillus terreus AT4 and AT49.

Aspergillus terreus AT49 = test: Measurement of Minimum Inhibitory Concentrations (MICs), A. terreus 49
Procedure: as §1

[1] = system: Aspergillus fumigatus AF293; test: Measurement of Minimum Inhibitory Concentrations (MICs), A. fumigatus
Procedure: as §1

Aspergillus niger = test: Measurement of Minimum Inhibitory Concentrations (MICs), A. niger
Procedure: as §1

[2] = system: Aspergillus fumigatus AF210; test: Measurement of Minimum Inhibitory Concentrations (MICs), A. fumigatus 210
Procedure: as §1

Aspergillus terreus AT4 = test: Measurement of Minimum Inhibitory Concentrations (MICs), A. terreus
Procedure: as §1

[3] = RPMI medium containing 2% glucose, 0.135M MOPS buffer
[4] = YAG medium, 24 hrs at 35° C., >70% growth inhibition

Row | SMILES | MIC (Aspergillus flavus; [3]) [mg/L] | MIC (Aspergillus flavus; [4]) [mg/L] | MIC (Aspergillus terreus AT49; [3]) [mg/L] | MIC (Aspergillus terreus AT49; [4]) [mg/L] | MIC [1, 3] [mg/L] | MIC [1, 4] [mg/L] | MIC (Aspergillus niger; [3]) [mg/L] | MIC (Aspergillus niger; [4]) [mg/L] | MIC [2, 3] [mg/L] | MIC [2, 4] [mg/L] | MIC (Aspergillus terreus AT4; [3]) [mg/L] | MIC (Aspergillus terreus AT4; [4]) [mg/L]
1 | COc1cc(C)nc(N2CCN(c3ccc(NC(=O)C(=O)c4c(-c5ccccc5)cc5n4CCCC5)cc3)CC2)c1 [Example 8, N-{4-[4-(4-Methoxy-6-methyl-pyridin-2-yl)-piperazin-1-yl]-phenyl}-2-oxo-2-(2-phenyl-5,6,7,8-tetrahydro-indolizin-3-yl)-acetamide] | 1 to 10 (≈ 1.82 to 18.2 µM) | < 1 | < 1 | < 1 | < 1 | < 1 | 1 to 10 (≈ 1.82 to 18.2 µM) | 1 to 10 (≈ 1.82 to 18.2 µM) | 1 to 10 (≈ 1.82 to 18.2 µM) | < 1 | < 1 | < 1
2 | Cc1cc(C)nc(N2CCN(c3ccc(NC(=O)C(=O)c4c(-c5ccccc5)cc5n4CCCC5)cc3)CC2)c1 [Example 3, N-{4-[4-(4,6-dimethyl-pyridin-2-yl)-piperazin-1-yl]-phenyl}-2-oxo-2-(2-phenyl-5,6,7,8-tetrahydro-indolizin-3-yl)-acetamide] | < 1 | < 1 | < 1 | < 1 | < 1 | < 1 | < 1 | < 1 | < 1 | < 1 | < 1 | < 1
3 | Cc1cc(C)nc(N2CCN(c3ccc(NC(=O)C(=O)c4c(-c5ccccc5)cc5n4CCCC5)cc3COCCN(C)C)CC2)c1 [Example 29, N-{3-(2-Dimethylamino-ethoxymethyl)-4-[4-(4,6-dimethyl-pyridin-2-yl)-piperazin-1-yl]-phenyl}-2-oxo-2-(2-phenyl-5,6,7,8-tetrahydro-indolizin-3-yl)-acetamide] | > 10 | > 10 | 1 to 10 (≈ 1.58 to 15.8 µM) | 1 to 10 (≈ 1.58 to 15.8 µM) | > 10 | > 10 | 1 to 10 (≈ 1.58 to 15.8 µM) | > 10 | > 10 | 1 to 10 (≈ 1.58 to 15.8 µM) | > 10 | 1 to 10 (≈ 1.58 to 15.8 µM)

Other lines, results leading:

Row | MIC (Aspergillus flavus; [3]) [mg/L] | MIC (Aspergillus flavus; [4]) [mg/L] | MIC (Aspergillus terreus AT49; [3]) [mg/L] | MIC (Aspergillus terreus AT49; [4]) [mg/L] | MIC [1, 3] [mg/L] | MIC [1, 4] [mg/L] | MIC (Aspergillus niger; [3]) [mg/L] | MIC (Aspergillus niger; [4]) [mg/L] | MIC [2, 3] [mg/L] | MIC [2, 4] [mg/L] | MIC (Aspergillus terreus AT4; [3]) [mg/L] | MIC (Aspergillus terreus AT4; [4]) [mg/L] | SMILES
4 | < 1 | < 1 | < 1 | < 1 | < 1 | < 1 | < 1 | < 1 | < 1 | < 1 | < 1 | < 1 | O=C(Nc1ccc(N2CCN(c3ccc(CN4CCOCC4)cn3)CC2)cc1)C(=O)c1c(-c2ccccc2)cc2n1CCCC2 [Example 18, N-{4-[4-(5-Morpholin-4-ylmethyl-pyridin-2-yl)-piperazin-1-yl]-phenyl}-2-oxo-2-(2-phenyl-5,6,7,8-tetrahydro-indolizin-3-yl)-acetamide]
5 | < 1 | < 1 | < 1 | < 1 | < 1 | < 1 | < 1 | < 1 | < 1 | < 1 | < 1 | < 1 | CCc1ccnc(N2CCN(c3ccc(NC(=O)C(=O)c4c(-c5ccccc5)cc5n4CCCC5)cc3)CC2)c1 [Example 17, N-{4-[4-(4-Ethyl-pyridin-2-yl)-piperazin-1-yl]-phenyl}-2-oxo-2-(2-phenyl-5,6,7,8-tetrahydro-indolizin-3-yl)-acetamide]
6 | < 1 | < 1 | < 1 | < 1 | < 1 | < 1 | < 1 | < 1 | < 1 | < 1 | < 1 | < 1 | Cc1cc(C)nc(N(C)CCN(C)c2ccc(NC(=O)C(=O)c3c(-c4ccccc4)cc4n3CCCC4)cc2)c1 [Example 7, N-[4-({2-[(4,6-Dimethyl-pyridin-2-yl)-methyl-amino]-ethyl}-methyl-amino)-phenyl]-2-oxo-2-(2-phenyl-5,6,7,8-tetrahydro-indolizin-3-yl)-acetamide]
